Laboratory results as given in article PMC7224190, “Pharmacological inhibition of PRMT7 links arginine monomethylation to the cellular stress response” (Nature Communications, 2020).

Key:
NSD2 = molecular target: T1, NSD2 (Homo sapiens, UniProt O96028); experiment: biochemical; parameters: radiometric methyltransferase selectivity assay with tritiated SAM, per cent activity; conditions: read-out: % of control remaining
T1 sequence (O96028 1-1365): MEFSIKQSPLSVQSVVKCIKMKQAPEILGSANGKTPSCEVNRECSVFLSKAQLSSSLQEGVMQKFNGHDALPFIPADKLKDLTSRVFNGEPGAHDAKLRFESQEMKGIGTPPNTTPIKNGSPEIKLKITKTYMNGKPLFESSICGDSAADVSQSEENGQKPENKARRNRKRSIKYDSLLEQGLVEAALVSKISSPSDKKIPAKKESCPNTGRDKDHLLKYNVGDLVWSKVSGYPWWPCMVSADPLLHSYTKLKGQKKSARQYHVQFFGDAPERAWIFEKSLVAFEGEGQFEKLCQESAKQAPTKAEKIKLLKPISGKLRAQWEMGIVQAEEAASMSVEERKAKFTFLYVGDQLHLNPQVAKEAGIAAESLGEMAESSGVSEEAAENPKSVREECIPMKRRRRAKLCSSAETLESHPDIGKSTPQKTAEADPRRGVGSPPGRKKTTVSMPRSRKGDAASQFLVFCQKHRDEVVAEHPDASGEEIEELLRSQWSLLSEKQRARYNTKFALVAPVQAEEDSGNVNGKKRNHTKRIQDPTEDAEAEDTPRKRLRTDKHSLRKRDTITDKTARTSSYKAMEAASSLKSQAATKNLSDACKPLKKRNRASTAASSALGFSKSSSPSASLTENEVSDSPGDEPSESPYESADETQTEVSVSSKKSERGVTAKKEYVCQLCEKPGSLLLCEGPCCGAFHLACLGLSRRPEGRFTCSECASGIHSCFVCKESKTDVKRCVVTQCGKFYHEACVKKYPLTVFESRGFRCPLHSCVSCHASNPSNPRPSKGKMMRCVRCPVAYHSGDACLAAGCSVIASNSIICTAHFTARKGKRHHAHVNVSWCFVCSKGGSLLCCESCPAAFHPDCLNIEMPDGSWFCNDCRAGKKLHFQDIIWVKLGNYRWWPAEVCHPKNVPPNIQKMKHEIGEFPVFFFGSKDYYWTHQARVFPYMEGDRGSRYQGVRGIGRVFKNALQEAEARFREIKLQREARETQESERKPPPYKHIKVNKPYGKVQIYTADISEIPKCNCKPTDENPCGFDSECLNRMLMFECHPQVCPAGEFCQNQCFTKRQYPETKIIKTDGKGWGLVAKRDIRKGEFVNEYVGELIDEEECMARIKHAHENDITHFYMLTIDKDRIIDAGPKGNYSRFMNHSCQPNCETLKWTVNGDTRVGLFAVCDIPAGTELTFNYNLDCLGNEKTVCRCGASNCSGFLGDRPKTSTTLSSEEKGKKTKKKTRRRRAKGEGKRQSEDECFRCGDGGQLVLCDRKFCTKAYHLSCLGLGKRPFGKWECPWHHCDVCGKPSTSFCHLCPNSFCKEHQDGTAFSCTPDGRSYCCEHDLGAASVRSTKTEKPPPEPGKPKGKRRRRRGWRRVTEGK
Protocol: (§1) The methyltransferase selectivity was assessed at two compound concentrations of 1 and 10 μM by radiometric assays using tritiated-SAM. For methyltransferases: MLL1, MLL3, EZH1 (PRC2), and EZH2 (PRC2), G9a, GLP, SUV39H1, SUV39H2, SUV420H1, SUV420H2, SETD2, SETD8, SETDB1, SETD7, PRMT1, PRMT3, PRMT4, PRMT5/ MEP50 complex, PRMT6, PRMT7, PRMT8, PRMT9, PRDM9, SMYD2, SMYD3, DNMT1, and BCDIN3D the incorporation of a tritium-labeled methyl group into biotinylated substrate was monitored using scintillation proximity assay (SPA). Briefly, a 10 μL reaction containing ^3H-SAM and substrate at concentrations close to the apparent Km values for each enzyme (balanced conditions) was prepared. The reactions were quenched with 10 μL of 7.5 M guanidine hydrochloride; 180 μL of 20 mM Tris buffer (pH 8.0) were added, and the mixture was transferred to a 96-well FlashPlate and incubated for 1 h. The counts per minute (CPM) was measured on a TopCount plate reader. The CPM in the absence of compound or enzyme was defined as 100% activity and background (0%), respectively, for each dataset[74]–[76]. Selectivity of SGC8158 against 342 kinases was evaluated in a kinase panel TR-FRET assay at 1 and 0.1 μM compound in duplicates as described before. Briefly, tagged kinases were incubated with compound and staurosporine-based fluorescent probe where the binding was detected using Tb conjugated anti-tag antibody energy transfer to the probe. Excitation wavelength was 337 nm and fluorescent emission signal was measured for Tb (486 nm) and fluorescent probe (BODIPY, 515 nm). Specific and non-specific binding was determined in the absence and presence of unlabeled staurosporine.

PRDM9 = PRDM9 (Homo sapiens, UniProt Q9NQV7); experiment: biochemical; parameters: radiometric methyltransferase selectivity assay with tritiated SAM, per cent activity; conditions: read-out: % of control remaining
Sequence of PRDM9 (Q9NQV7 whole entry): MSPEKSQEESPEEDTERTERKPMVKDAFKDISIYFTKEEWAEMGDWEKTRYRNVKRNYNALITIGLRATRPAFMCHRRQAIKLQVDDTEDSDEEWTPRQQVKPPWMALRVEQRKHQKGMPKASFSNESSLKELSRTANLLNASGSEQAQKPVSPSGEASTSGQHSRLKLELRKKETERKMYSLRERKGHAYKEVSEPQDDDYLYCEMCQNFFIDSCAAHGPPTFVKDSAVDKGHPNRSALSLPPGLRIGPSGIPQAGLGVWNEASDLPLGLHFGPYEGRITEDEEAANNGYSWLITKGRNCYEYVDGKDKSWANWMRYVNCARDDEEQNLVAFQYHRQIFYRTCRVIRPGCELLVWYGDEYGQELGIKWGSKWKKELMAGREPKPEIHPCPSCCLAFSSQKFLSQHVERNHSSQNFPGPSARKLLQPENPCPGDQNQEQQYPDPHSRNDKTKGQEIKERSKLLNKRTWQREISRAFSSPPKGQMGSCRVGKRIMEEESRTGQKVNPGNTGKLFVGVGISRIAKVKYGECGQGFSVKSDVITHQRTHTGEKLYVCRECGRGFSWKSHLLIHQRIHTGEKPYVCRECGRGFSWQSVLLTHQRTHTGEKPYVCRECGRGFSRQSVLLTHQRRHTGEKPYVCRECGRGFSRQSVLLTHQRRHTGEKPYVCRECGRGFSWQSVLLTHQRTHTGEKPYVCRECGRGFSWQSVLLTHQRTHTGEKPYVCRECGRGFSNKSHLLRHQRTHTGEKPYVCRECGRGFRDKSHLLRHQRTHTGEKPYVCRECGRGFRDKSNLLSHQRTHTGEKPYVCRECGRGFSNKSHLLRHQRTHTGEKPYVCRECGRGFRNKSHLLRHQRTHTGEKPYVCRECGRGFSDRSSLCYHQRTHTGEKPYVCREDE
Protocol: as §1

## Nc1ncnc2c1ncn2[C@@H]1O[C@H](CSCCCCNCc2cccc(-c3ccc(Cl)cc3)c2)[C@@H](O)[C@H]1O [SGC8158]
NSD2
  remaining activity at 1 µM: 106%
  remaining activity at 10 µM: 101%
PRDM9
  remaining activity at 1 µM: 106%
  remaining activity at 10 µM: 96%

## CC1(C)O[C@@H]2[C@H](O1)[C@@H](CSCCCCNCc1cccc(-c3ccc(Cl)cc3)c1)O[C@H]2n1cnc2c(N)ncnc21 [SGC8158N]
NSD2
  remaining activity at 1 µM: 92%
  remaining activity at 10 µM: 97%
PRDM9
  remaining activity at 1 µM: 101%
  remaining activity at 10 µM: 98%
